Experimental data from US20220251109A1, “OXAAZAQUINAZOLINE-7(8H)-KETONE COMPOUND, PREPARATION METHOD THEREFOR AND PHARMACEUTICAL APPLICATION THEREOF” (GENFLEET THERAPEUTICS (SHANGHAI) INC., priority 2019, published 2022).

What was measured:
Format in all cases: cell-based, human
[1] = system: A549 cells (Kras G12S mutation); assay: Cell proliferation inhibition experiment, 3D model, CellTiter-Glo (A549); settings: Homo sapiens, A549, 120 h, A549, 3D sphere plate, 5 days, 2% FBS
In short: (§1)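 NCI-H358 (800 cells/well) and A549 (400 cells/well) were grown as overnight 3D spheroids in 2% FBS medium, then exposed 5 days to 3.16-fold compound dilutions (0.1% DMSO). Viability was read by CellTiter-Glo luminescence; IC50 came from a four-parameter fit of inhibition normalised to DMSO and medium blanks.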

[2] = system: NCI-H358 cells (Kras G12C mutation); assay: Cell proliferation inhibition experiment, 3D model, CellTiter-Glo (NCI-H358); settings: Homo sapiens, NCI-H358, 120 h, NCI-H358, 3D sphere plate, 5 days, 2% FBS
In short: as §1

[3] = system: p-ERK in MIA PaCa2 cells (Kras G12C mutation); assay: Cell p-ERK detection experiment (HTRF) in MIA PaCa2 cells; settings: Homo sapiens, MIA PaCa-2, 2 h, compound 2 hours
In short: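 MIA PaCa2 cells (KRAS G12C) seeded overnight, then treated 2 h with 3.16-fold compound dilutions (0.1% DMSO). Lysates probed with p-ERK HTRF antibodies for 4 h; inhibition relative to DMSO and blank wells, IC50 from four-parameter fit.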

[4] = system: MIA PaCa-2 cells (Kras G12C mutation); assay: Cell proliferation inhibition experiment, 3D model, CellTiter-Glo (MIA PaCa-2); settings: Homo sapiens, MIA PaCa-2, 120 h, MIA PaCa-2, 3D sphere plate, 5 days; read-out: MIA-PaCa2 IC50
In short: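 3D spheroid model: 200 MIA PaCa-2 cells per well cultured overnight, then treated with a 3.16-fold compound dilution series (0.1% DMSO) for 5 days. Viability read by CellTiter-Glo luminescence. Inhibition rate normalised to DMSO and medium-blank controls; IC50 from four-parameter fit.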

| SMILES | IC50 [1] [µM] | IC50 [2] [nM] | IC50 [3] [nM] | IC50 [4] [nM] |
| --- | --- | --- | --- | --- |
| C=CC(=O)N1CCN2c3nc(=O)n(-c4c(C)ncnc4C4CC4)c4nc(-c5c(O)cccc5F)c(F)c(c34)OC[C@H]2C1 [Compound Z108] | > 30 | 9 | 49 | 17 |
| C=CC(=O)N1CCN2c3nc(=O)n(-c4c(OC)ncnc4C(C)C)c4nc(-c5ccccc5F)c(Cl)c(c34)OC[C@H]2C1 [Compound Z110] | 14.7 | 4 | 43 | 11 |
| C=CC(=O)N1CCN2c3nc(=O)n(-c4c(OC)ncnc4C(C)C)c4nc(-c5c(O)cccc5F)c(F)c(c34)OC[C@H]2C1 [Compound Z111] | > 30 | 4 | 47 | 7 |
| C=CC(=O)N1CCN2c3nc(=O)n(-c4c(Cl)cncc4C(C)C)c4nc(-c5ccccc5F)c(Cl)c(c34)OC[C@H]2C1 [Compound Z114] | 4.63 | 8 | 39 | 74 |
| C=CC(=O)N1CCN2c3nc(=O)n(-c4c(C)nc(OC)nc4C(C)C)c4nc(-c5c(O)cccc5F)c(F)c(c34)OC[C@H]2C1 [Compound Z115] | 18.7 | 5 | 31 | 21 |
| C=CC(=O)N1CCN2c3nc(=O)n(-c4c(C)nc(OC)nc4C(C)C)c4nc(-c5ccccc5F)c(Cl)c(c34)OC[C@H]2C1 [Compound Z116] | 8.89 | 3 | 26 | 26 |
| C=CC(=O)N1CCN2c3nc(=O)n(-c4c(C)c(Cl)nn4C(C)C)c4nc(-c5ccccc5F)c(Cl)c(c34)OC[C@H]2C1 [Compound Z119] | 7.9 | 12 | 59 | 113 |
| C=CC(=O)N1CCN2c3nc(=O)n(-c4c(C#N)cnn4C(C)(C)C)c4nc(-c5c(O)cccc5F)c(Cl)c(c34)OC[C@H]2C1 [Compound Z120] | 27.7 | 17 | 193 | 85 |
| C=CC(=O)N1CCN2c3nc(=O)n(-c4c(C)cc(=O)n(C)c4C(C)C)c4nc(-c5ccccc5F)c(Cl)c(c34)OC[C@H]2C1 [Compound Z121] | > 10 | 3 | 16 | 5 |
| C=CC(=O)N1CCN2c3nc(=O)n(-c4c(CO)ccnc4C(C)C)c4nc(-c5ccccc5F)c(Cl)c(c34)OC[C@H]2C1 [Compound Z122] | > 30 | 7 | 101 | 11 |
